Results taken from patent US20150328249A1, “MODULATION OF MYOFIBER REPAIR BY ANTI-MYOSTATIN STRATEGIES AND/OR PPAR GAMMA LIGANDS, ALONE OR IN COMBINATION WITH STEM CELLS, FOR THE THERAPY OF CRITICAL LIMB ISCHEMIA AND OTHER ISCHEMIC PROCESSES AFFECTING THE SKELETAL MUSCLE” (LOS ANGELES BIOMEDICAL RESEARCH INSTITUTE AT HARBOR-UCLA …, priority 2012, published 2015).

Legend:
[1] = tested on: rat models for insulin resistance and T2DM; assay: Low oral dose pioglitazone in rat models for insulin resistance and T2DM; assay type: in vivo
db/db diabetic mice = assay: CLI induced by ULFA in db/db diabetic mice, treated with MDSC and/or molsidomine; assay type: in vivo; settings: 3 weeks
Procedure: CLI was induced by ULFA in db/db diabetic mice and treated as follows (n=8/group), for studying the effect of a long-acting NO donor, molsidomine: 1) Untreated (UT): vehicle; 2) MDSC (SC): MDSC into gastrocnemius; 3) MDSC-molsidomine (SC+Mol): as #2, and IP molsidomine (5 mg/kg/day); 4) Molsidomine (Mol) as in #3, no MDSC. Non-diabetic non-ULFA untreated (ND-UT) mice were controls.
At 3 weeks after initiating treatment, mortality, leg preservation, and limb loss/motion/ischemia were determined. Stem cell, myogenic, angiogenic, lipofibrosis, and neurogenesis markers were assayed in muscle tissue by quantitative histochemistry and immunohisto-chemistry and western blot.

Row | SMILES | side effects ([1]; glycemia-normalizing dose of 12 mg/kg/day) | body weight ([1]; low oral dose 0.6 mg/kg/day) | glycemia ([1]; low oral dose 0.6 mg/kg/day) [mg/dL] | follistatin expression in the skeletal muscle (db/db diabetic mice) | stem cell number, expression of stem cell marker nuclear Oct 4a in the skeletal muscle (db/db diabetic mice; gastrocnemius of ischemic leg, quantitative western blot) | number of central nuclei (early stage of myofiber repair) (db/db diabetic mice; hematoxylin-eosin histochemistry) | fat infiltration in the skeletal muscle (Oil Red O) (db/db diabetic mice; quantitative histochemistry) | fibrosis, collagen deposition in the skeletal muscle (Masson trichrome) (db/db diabetic mice; quantitative histochemistry) | vascular endothelial growth factor (VEGF) expression in the skeletal muscle (angiogenesis) (db/db diabetic mice; quantitative western blot) | vascular endothelium, CD-31 expression in the skeletal muscle (db/db diabetic mice; quantitative western blot) | vascular endothelium, von Willebrandt factor expression in the skeletal muscle (db/db diabetic mice; quantitative western blot) | vascular smooth muscle marker calponin in the skeletal muscle (db/db diabetic mice; quantitative western blot)
1 | CCc1ccc(CCOc2ccc(CC3SC(=O)NC3=O)cc2)nc1 (stereo not drawn) [pioglitazone] | obesity and fat infiltration in the tissues | does not exert glycemic control or increase body weight | 250 to 300 | – | – | – | – | – | – | – | – | –
2 | CCOC(=O)[N-]c1cn(N2CCOCC2)n[o+]1 [molsidomine] | – | – | – | decrease | reduced this effect | slightly inhibitory | did not reduce | did not exert this noxious effect | also angiogenic | increase | increase | abolished the effect
